From ChEMBL document CHEMBL1201862, “PubChem BioAssay data set” (2004)
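Following 48 hours of exposure in 96-well plates, responses at five concentrations were used to interpolate endpoints linearly. GI50 = concentration required for 50% inhibition of growth.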 Activity calls are given as the source filed them. Cut-off read from the data, not from the text of the source: active = GI50 up to about 1.1 µM and inactive = higher.

Assays:
Experiment in all cases: growth of human tumour cells (NCI), 48 h
[1] = tested on: EKVX
[2] = tested on: HOP-92
[3] = tested on: SNB-75
[4] = tested on: RXF 393
[5] = tested on: SK-MEL-5
[6] = tested on: SF-295
[7] = tested on: CAKI-1
[8] = tested on: TK-10
[9] = tested on: HOP-62
[10] = tested on: SN12C
[11] = tested on: U-251
[12] = tested on: A549
[13] = tested on: SF-539
[14] = tested on: HCT-116
[15] = tested on: OVCAR-3
[16] = tested on: SK-OV-3
[17] = tested on: COLO 205
[18] = tested on: CCRF-CEM
[19] = tested on: SK-MEL-2
[20] = tested on: DU-145

Measured: GI50

O=C(O/N=c1/ccc(=O)/c(=N\OC(=O)c2ccccc2)c1=O)c1ccccc1
inactive: [1] > 100 µM | [2] > 100 µM | [3] > 100 µM | [4] > 100 µM | [5] > 100 µM | [6] > 100 µM | [7] > 100 µM | [8] > 100 µM | [9] > 100 µM | [10] > 100 µM | [11] > 100 µM | [12] > 100 µM | [13] > 100 µM | [14] > 100 µM | [15] > 100 µM | [16] > 100 µM | [17] > 100 µM | [18] 33 µM

CC1(c2cccc(N)c2)C2C(=O)NC(=O)C1C(=O)NC2=O (centres undefined)
inactive: [1] 45 µM | [2] 22.9 µM | [3] 28.1 µM | [4] 26.1 µM | [5] 18.5 µM | [6] 22.4 µM | [7] 61.9 µM | [8] 50.9 µM | [9] 32.2 µM | [10] 29 µM | [12] 33.9 µM | [13] 28.6 µM | [19] 24.3 µM | [15] 21.7 µM | [16] 23.9 µM | [17] 23.7 µM | [18] 22.4 µM

Nc1ccc(SC23CC4CC(CC(C4)C2)C3)cc1
inactive: [1] > 100 µM | [4] 27.5 µM | [5] > 100 µM | [6] 92.7 µM | [7] > 100 µM | [8] > 100 µM | [9] > 100 µM | [10] > 100 µM | [11] 78.3 µM | [12] > 100 µM | [13] > 100 µM | [14] > 100 µM | [19] > 100 µM | [15] > 100 µM | [20] > 100 µM | [16] > 100 µM | [17] > 100 µM | [18] > 100 µM

Cc1nc(Nc2ccc([N+](=O)[O-])cc2)sc1C(/C=C/c1ccc(N(C)C)cc1)=N/NC(=O)c1ccccc1
inactive: [1] 41.2 µM | [2] 6.82 µM | [3] > 100 µM | [4] 58.6 µM | [6] 56 µM | [7] > 100 µM | [8] 52.8 µM | [9] 40 µM | [10] 59.3 µM | [11] 56.6 µM | [12] 46.5 µM | [13] 42.9 µM | [14] 63.7 µM | [19] 92 µM | [15] > 100 µM | [16] > 100 µM | [17] > 100 µM | [18] 38.3 µM

Cc1c(Cl)cccc1N1C(=O)C(Cl)=C(Cl)C1=O
inactive: [1] > 100 µM | [2] > 73.8 µM | [3] > 100 µM | [4] 44.4 µM | [5] > 100 µM | [6] > 100 µM | [7] > 51.8 µM | [8] > 100 µM | [9] > 100 µM | [10] > 100 µM | [11] > 100 µM | [12] > 100 µM | [13] > 100 µM | [14] > 100 µM | [19] > 100 µM | [15] > 100 µM | [16] > 100 µM | [17] > 65.9 µM | [18] 16.4 µM

Cn1c2ccccc2c(=O)c2cccc(C(=O)NC(CS)C(=O)O)c21 (centres undefined)
inactive: [1] > 100 µM | [3] 72.4 µM | [5] > 100 µM | [6] > 100 µM | [7] 32.8 µM | [8] > 100 µM | [9] > 100 µM | [10] > 100 µM | [11] > 100 µM | [12] > 100 µM | [13] 43.2 µM | [14] 68.9 µM | [19] > 100 µM | [15] > 100 µM | [20] > 100 µM | [16] > 100 µM | [17] 67.5 µM

CCOC(=O)c1cn(Cc2ccccc2)c(=O)n1Cc1ccccc1
inactive: [1] > 100 µM | [2] > 100 µM | [3] > 100 µM | [4] > 100 µM | [5] > 100 µM | [6] 67.1 µM | [7] 77.1 µM | [8] > 100 µM | [9] > 100 µM | [10] > 100 µM | [11] > 100 µM | [12] 75 µM | [13] > 100 µM | [14] > 100 µM | [19] > 100 µM | [15] > 100 µM | [16] > 100 µM | [17] > 100 µM | [18] 62.8 µM

COc1cc(C)c(CC/C(C)=C/Cc2cc(O)ccc2O)c(C)c1C [PANICEIN A HYDROQUINONE]
inactive: [1] > 25 µM | [2] > 25 µM | [3] > 25 µM | [4] > 25 µM | [5] > 25 µM | [6] > 25 µM | [7] > 25 µM | [8] > 25 µM | [10] > 25 µM | [11] > 25 µM | [12] > 25 µM | [13] > 25 µM | [14] > 25 µM | [19] > 25 µM | [15] > 25 µM | [16] > 25 µM | [17] > 25 µM | [18] 7.69 µM
